Data set [1] deals with human embryonic stem cell derived neural stem cells (NSCs). Put plainly: Neural Stem Cell Proliferation Assay (neurogenesis assay, ATP levels by CellTiterGlo). It counts as cell-based. The following applies: 96 h, compound concentration at which 150% activity of control (100%) is reached, NSC proliferation by ATP level after 4 days incubation, dose response 8 μM to 8 nM. Here is the method:
Neurogenic properties of small molecules are determined based on the proliferation of human embryonic stem cell derived neural stem cells (NSCs) which were derived via a dual smad inhibition as previously described (Chambers, S. M., et al., Highly efficient neural conversion of human ES and iPS cells by dual inhibition of SMAD signaling, Nature biotechnology, 2009. 27(3): p. 275-80.)
Compounds respond is measured by the increase in cells based on ATP levels
(Promega:CellTiterGlo®) after an incubation period of 4 days.
NSCs are thawed and expanded over 3 passages. On the 14th day, NSCs are seeded in Polyornithin/Laminin coated 384 well plates at a cell density of 21′000 cells/cm^2 in a media volume of 38 μl.
4 hours after cell seeding, compound solutions are added at a volume of 2 μl. Stock solutions of the compounds (water, 5% DMSO) are diluted to obtain a dose response (11 points, dilution factor is 2), ranging from 8 μM to 8 nM. Controls are run to consistently determine the neurogenic properties of the cells:
Negative (neutral) control is cell culture Media (final DMSO concentration: 0.25%).
• 1. cell culture Media+100 ng/ml FGF2 (final DMSO concentration: 0.1%) • 2. cell culture Media+20 ng/ml EGF (final DMSO concentration: 0.1%) • 3. cell culture Media+100 ng/ml Wnt3a (final DMSO concentration: 0.1%)
After 4 days incubation at 37° C., 5% CO2, the amount of ATP per well is quantified. The ATP concentration is proportional to the cell number. ATP is quantified by using the Promega CellTiterGlo® kit. The CellTiterGlo® reagents contain a cell lysis buffer, a thermo stable luciferase (UltraGlo™ recombinant luciferase), magnesium and luciferin. Luciferin reacts with ATP producing oxyluciferin, AMP and light. The luminescence signal is proportional to the ATP content.
The value of negative (neutral) control is determined for each assay plate by taking the average of 16 negative control wells. The neurogenic compound response is calculated for each compound as (compound/Negative Control)*100.
The values of EC150 from the dose response curve are determined for each test compound. The EC150 is the compound concentration at which 150% activity of control (100%) is reached.

Compound `O=C1NCCCn2c1cc1cc(F)cc(-c3ccc(F)cc3)c12` [Example 17, 9-Fluoro-7-(4-fluoro-phenyl)-2,3,4,5-tetrahydro-[1,4]diazepino[1,2-a]indol-1-one] had a melting point of 239.5 °C. This compound returned an EC (150% of control) in data set [1] of 0.05 µM.

In turn, `O=C1NCCn2c1cc1cc(F)cc(-c3ccc(F)cc3)c12` [Example 18, 8-Fluoro-6-(4-fluoro-phenyl)-3,4-dihydro-2H-pyrazino[1,2-a]indol-1-one] registered a melting point of 304 °C. The compound also had an EC (150% of control) in data set [1] of 0.026 µM.

For `COc1ccc(-c2cc(F)cc3cc4n(c23)CCNC4=O)cc1` [Example 19, 8-Fluoro-6-(4-methoxy-phenyl)-3,4-dihydro-2H-pyrazino[1,2-a]indol-1-one], the melting point worked out at 274.5 °C. Also, the EC (150% of control) in data set [1] turned out to be 0.007 µM.

For the compound `O=C1NCCCn2c1cc1cc(F)cc(-c3ccncc3)c12` [Example 20, 9-Fluoro-7-pyridin-4-yl-2,3,4,5-tetrahydro-[1,4]diazepino[1,2-a]indol-1-one], the melting point stood at 309 °C. This compound displayed an EC (150% of control) in data set [1] of 0.037 µM.

`O=C1NCCn2c1cc1cc(F)cc(-c3ccncc3)c12` [Example 21, 8-Fluoro-6-pyridin-4-yl-3,4-dihydro-2H-pyrazino[1,2-a]indol-1-one] displayed a melting point of 323.5 °C. Also, the EC (150% of control) in data set [1] was 0.036 µM.

For `O=C1NCCn2c1cc1cc(F)cc(-c3ccc(F)c(F)c3)c12` [Example 22, 6-(3,4-Difluoro-phenyl)-8-fluoro-3,4-dihydro-2H-pyrazino[1,2-a]indol-1-one], the melting point amounted to 289.5 °C. Besides, the EC (150% of control) in data set [1] amounted to 0.037 µM.

The compound `O=C1NCCn2c1cc1cc(F)cc(-c3ccc(Cl)cc3)c12` [Example 23, 6-(4-Chloro-phenyl)-8-fluoro-3,4-dihydro-2H-pyrazino[1,2-a]indol-1-one] returned a melting point of 322 °C. Besides, in data set [1], the EC (150% of control) amounted to 0.019 µM.

Compound `Cc1ccc(-c2cc(F)cc3cc4n(c23)CCNC4=O)cc1` [Example 24, 8-Fluoro-6-p-tolyl-3,4-dihydro-2H-pyrazino[1,2-a]indol-1-one] had a melting point of 271.5 °C. The same compound yielded an EC (150% of control) in data set [1] of 0.017 µM.

`O=C1NCCn2c1cc1cc(F)cc(-c3ccc(C(F)(F)F)cc3)c12` [Example 25, 8-Fluoro-6-(4-trifluoromethyl-phenyl)-3,4-dihydro-2H-pyrazino[1,2-a]indol-1-one]: the melting point was 346 °C. In data set [1], this compound registered an EC (150% of control) of 0.023 µM.

With `O=C1NCCCn2c1cc1cc(F)cc(-c3ccc(F)c(F)c3)c12` [Example 28, 7-(3,4-Difluoro-phenyl)-9-fluoro-2,3,4,5-tetrahydro-[1,4]diazepino[1,2-a]indol-1-one], the melting point turned out to be 230.5 °C. Besides, in data set [1], the EC (150% of control) worked out at 0.1 µM.

Take `O=C1NCCCn2c1cc1cc(F)cc(-c3ccc(Cl)cc3)c12` [Example 29, 7-(4-Chloro-phenyl)-9-fluoro-2,3,4,5-tetrahydro-[1,4]diazepino[1,2-a]indol-1-one]: the melting point came to 263.5 °C. Further, the EC (150% of control) in data set [1] was determined as 0.03 µM.

For the compound `Cc1ccc(-c2cc(F)cc3cc4n(c23)CCCNC4=O)cc1` [Example 30, 9-Fluoro-7-p-tolyl-2,3,4,5-tetrahydro-[1,4]diazepino[1,2-a]indol-1-one], the melting point was found to be 258.5 °C. The compound further had an EC (150% of control) in data set [1] of 0.036 µM.

The compound `O=C1NCCCn2c1cc1cc(F)cc(-c3ccc(C(F)(F)F)cc3)c12` [Example 31, 9-Fluoro-7-(4-trifluoromethyl-phenyl)-2,3,4,5-tetrahydro-[1,4]diazepino[1,2-a]indol-1-one] returned a melting point of 257 °C. For the same compound, the EC (150% of control) in data set [1] was 0.056 µM.

The compound `O=C1NCCn2c1cc1c(F)c(F)cc(-c3ccc(F)cc3)c12` [Example 32, 8,9-Difluoro-6-(4-fluoro-phenyl)-3,4-dihydro-2H-pyrazino[1,2-a]indol-1-one] registered a melting point of 283.5 °C. In addition, the EC (150% of control) in data set [1] came out at 2.6 µM.

As for `COc1ccc(-c2cc(F)c(F)c3cc4n(c23)CCNC4=O)cc1` [Example 33, 8,9-Difluoro-6-(4-methoxy-phenyl)-3,4-dihydro-2H-pyrazino[1,2-a]indol-1-one], the melting point was determined as 227.5 °C. In data set [1], this compound had an EC (150% of control) of 0.22 µM.

Take `O=C1NCCn2c1cc1c(F)c(F)cc(-c3ccc(Cl)cc3)c12` [Example 34, 6-(4-Chloro-phenyl)-8,9-difluoro-3,4-dihydro-2H-pyrazino[1,2-a]indol-1-one]: the melting point is 327 °C. In data set [1], the EC (150% of control) stood at 1.4 µM.

As to `O=C1NCCn2c1cc1c(F)c(F)cc(-c3ccc(F)c(F)c3)c12` [Example 35, 6-(3,4-Difluoro-phenyl)-8,9-difluoro-3,4-dihydro-2H-pyrazino[1,2-a]indol-1-one], the melting point was determined as 317.5 °C. This compound gave an EC (150% of control) in data set [1] of 2.6 µM.

Consider `O=C1NCCCn2c1cc1c(F)c(F)cc(-c3ccc(F)cc3)c12` [Example 36, 9,10-Difluoro-7-(4-fluoro-phenyl)-2,3,4,5-tetrahydro-[1,4]diazepino[1,2-a]indol-1-one], for which the melting point was found to be 287 °C. For the same compound, the EC (150% of control) in data set [1] was found to be 3.9 µM.

`COc1ccc(-c2cc(F)c(F)c3cc4n(c23)CCCNC4=O)cc1` [Example 37, 9,10-Difluoro-7-(4-methoxy-phenyl)-2,3,4,5-tetrahydro-[1,4]diazepino[1,2-a]indol-1-one]: the melting point worked out at 207.5 °C. The EC (150% of control) in data set [1] worked out at 0.45 µM.

`O=C1NCCn2c1cc1cc(F)c(F)c(-c3ccc(F)cc3)c12` [Example 38, 7,8-Difluoro-6-(4-fluoro-phenyl)-3,4-dihydro-2H-pyrazino[1,2-a]indol-1-one] gave a melting point of 286.5 °C. The same compound came in with an EC (150% of control) in data set [1] of 0.03 µM.

As to `COc1ccc(-c2c(F)c(F)cc3cc4n(c23)CCNC4=O)cc1` [Example 39, 7,8-Difluoro-6-(4-methoxy-phenyl)-3,4-dihydro-2H-pyrazino[1,2-a]indol-1-one], the melting point came to 274.5 °C. In data set [1], the EC (150% of control) is 0.005 µM.

For the compound `O=C1NCCCn2c1cc1cc(F)c(F)c(-c3ccc(F)cc3)c12` [Example 40, 8,9-Difluoro-7-(4-fluoro-phenyl)-2,3,4,5-tetrahydro-[1,4]diazepino[1,2-a]indol-1-one], the melting point was found to be 223.5 °C. Also, the EC (150% of control) in data set [1] turned out to be 0.024 µM.

In turn, `COc1ccc(-c2c(F)c(F)cc3cc4n(c23)CCCNC4=O)cc1` [Example 41, 8,9-Difluoro-7-(4-methoxy-phenyl)-2,3,4,5-tetrahydro-[1,4]diazepino[1,2-a]indol-1-one] yielded a melting point of 182.5 °C. Moreover, in data set [1], the EC (150% of control) came to 0.006 µM.

In turn, `O=C1NCCCn2c1cc1cc(F)c(F)c(-c3ccc(F)c(F)c3)c12` [Example 42, 7-(3,4-Difluoro-phenyl)-8,9-difluoro-2,3,4,5-tetrahydro-[1,4]diazepino[1,2-a]indol-1-one] came in with a melting point of 225 °C. In data set [1], the EC (150% of control) stood at 0.21 µM.

With `O=C1NCCCn2c1cc1cc(F)c(F)c(-c3ccc(Cl)cc3)c12` [Example 43, 7-(4-Chloro-phenyl)-8,9-difluoro-2,3,4,5-tetrahydro-[1,4]diazepino[1,2-a]indol-1-one], the melting point amounted to 232.5 °C. The EC (150% of control) in data set [1] worked out at 0.08 µM.

On to `O=C1NCCn2c1cc1cc(F)c(F)c(-c3ccc(F)c(F)c3)c12` [Example 44, 6-(3,4-Difluoro-phenyl)-7,8-difluoro-3,4-dihydro-2H-pyrazino[1,2-a]indol-1-one], for which the melting point was 305 °C. For the same compound, in data set [1], the EC (150% of control) is 0.3 µM.

The compound `O=C1NCCn2c1cc1cc(F)c(F)c(-c3ccc(Cl)cc3)c12` [Example 45, 6-(4-Chloro-phenyl)-7,8-difluoro-3,4-dihydro-2H-pyrazino[1,2-a]indol-1-one] registered a melting point of 332.5 °C. The EC (150% of control) in data set [1] worked out at 0.076 µM.

For the compound `O=C1NCCCn2c1cc1cc(Cl)cc(-c3ccc(F)c(F)c3)c12` [Example 46, 9-Chloro-7-(3,4-difluoro-phenyl)-2,3,4,5-tetrahydro-[1,4]diazepino[1,2-a]indol-1-one], the melting point was 230.5 °C. The compound further yielded an EC (150% of control) in data set [1] of 0.69 µM.

`Cc1ccc(-c2cc(Cl)cc3cc4n(c23)CCCNC4=O)cc1` [Example 47, 9-Chloro-7-p-tolyl-2,3,4,5-tetrahydro-[1,4]diazepino[1,2-a]indol-1-one] yielded a melting point of 227 °C. The same compound yielded an EC (150% of control) in data set [1] of 0.6 µM.

The record behind these values is patent US9284321B2, “Piperazino[1,2-a]indol-1-ones and [1,4]diazepino[1,2-a]indol-1-one” (Hoffmann-La Roche Inc., priority 2012, dated 2016).
